# From article PMC9763021, “Comprehensive Assessment of Biomolecular Interactions of Morpholine-Based Mixed Ligand Cu(II) and Zn(II) Complexes of 2,2′-Bipyridine as Potential Anticancer and SARS-CoV-2 Agents: A Synergistic Experimental and Structure-Based Virtual Screening” (Bioinorganic Chemistry and Applications, 2022)
# Assays:
# Mucor indicus = assay: Agar disc diffusion, strain J; assay type: cell-based; set-up: (inhibition %): concentration or dose not given beside the values; conditions: for diameter of the clear zone inhibition: control = 6 mm
# Method: (§1) In-vitro antimicrobial properties were evaluated for all samples by the agar disc diffusion method towards different fungal and bacterial strains. Additionally, the reported inhibition zone values were comparatively analyzed with the standard antifungal drugs ketoconazole and amphotericin B as well as the standard antibiotic medications streptomycin and amikacin.
# (§2) The current research has a curious focus on the in vitro antimicrobial properties of biological systems because these studies are crucial for developing effective antibacterial and antifungal medications. […] It can also be spelled out based on the chelation theory proposed by Overtone and Tweedy. Chelation theory points out that the partial exchanging of the positive charge of the metal center with donor moieties, and overlap of the ligand orbitals will reduce the greater degree of the metal ion's polarity, which ultimately rises the delocalization of π and d electrons over the full chelated ring system. By raising the size of the metal ion due to the retarding of polarization, chelation may also enhance the complexes' lipophilic characteristics, which further stimulate the lipid membrane permeability and break down the bacteria' enzymes responsible for cell wall formation, therefore slowing down the regular cell processes. By preventing the production of cell walls/proteins/DNA, including by obstructing folate metabolism and the cytoplasmic membrane, antimicrobial drugs frequently either fully eliminate microbes or only prevent their cell growth. Additionally, the samples' mode of action may be employed in disrupting the cell's respiration process by forming an H-bond during the morpholine-fused iminic group coordinated with the active metal center of its components, inhibiting proliferation of the cell. […] The difference in the antimicrobial efficacy of some of the compounds towards various microorganisms influences on the impermeability of the cells of the germs or the diversity of ribosomes of the microbes. The % of the inhibition of all substances is estimated from (45) (Table 9).
# (§3) (A, B, C, D, and E are represented as gram negative bacteria species Escherichia coli, Salmonella enteric serovar typhi, Salmonella enteric serovar typhi, Pseudomonas aeruginosa, and Shigella flexneri, respectively. F & G are denoted as gram positive bacteria species Staphylococcus aureus and Bacillus cereus. H, I, and J are represented as fungal strains Aspergillus niger, Candida albicans, and Mucor indicus. Standard drugs for bacterial strains: Amikacin & Streptomycin Standard drugs for fungal strains: Ketoconazole and Amphotericin B. [Control (DMSO) = 6 mm].(44) Inhibition %=T–C/T×100, where T and C are represented as the diameter of microbial growth of the sample plates and the control plate (6 mm), respectively. Error limits ±2.5–5.0% (P ≤ 0.05).
# Aspergillus niger = assay: Agar disc diffusion, strain H; assay type: cell-based; set-up: (inhibition %): concentration or dose not given beside the values; conditions: for diameter of the clear zone inhibition: control = 6 mm
# Method: as §1, §2, §3
# Candida albicans = assay: Agar disc diffusion, strain I; assay type: cell-based; set-up: (inhibition %): concentration or dose not given beside the values; conditions: for diameter of the clear zone inhibition: control = 6 mm
# Method: as §1, §2, §3
# [1] = Nitric oxide scavenging assay; assay type: biochemical; conditions: for % Inhibition nitric oxide: 546 nm
# Method: (§4) All samples were evaluated for their scavenging ability with the help of UV-visible spectrophotometer at different concentrations of 40, 80, 120, 160, 200, and 240 μM [6, 28]. While performing the antioxidant properties for the DPPH, hydroxyl, superoxide, and nitric oxide radical scavenging, the absorbance at 517, 230, 590, and 546 nm, respectively, was closely observed. In addition, the observed IC50 values of all samples were compared with ascorbic acid.
# The diffusible nitric oxide free radical is a crucial chemical mediator, which assists in overcoming diverse chronological human diseases. The NO free radical scavenging potential for all test samples was also carried out at 546 nm. It monitored the alterations in electronic absorption intensity of the nitric oxide radical inhibition outcome concerning the sample concentrations. When the test sample concentration rises, the nitric oxide free inhibition effectiveness also increases. The measured % of nitric oxide radical scavenging capability for all samples at 240 μM was obtained in the subsequent order (ascorbic acid) 72.73 > (1a) 65.47 > (2a) 58.43 > (HL) 51.62.
# [2] = Superoxide scavenging assay; assay type: biochemical; conditions: for % Inhibition superoxide: 590 nm
# Method: as §4
# A vital enzyme catalyst in the body's defence against free radicals, superoxide dismutase (SOD) quickly and efficiently reduces toxicity and cellular damage by exchanging superoxide with water (or) harmless molecules. The % of inhibition for all substances was analyzed at 590 nm. The outcomes were obtained in the subsequent order: (ascorbic acid) 84.85 > (1a) 67.17 > (2a) 58.18 > (HL) 50.42.
# [3] = DPPH radical scavenging assay; assay type: biochemical; conditions: for % Inhibition DPPH: 517 nm
# Method: as §4
# The colour of an aqueous or methanol solution changes from deep purple to pale yellow when DPPH, a stable chromogen free radical, combines with an antioxidant molecule, which means that DPPH quickly absorbs the hydrogen or electrons from the donor groups. In this case, for the baseline correction, a blank DPPH solution in the absence of a test compound was employed, and 517 nm (ε = 8320 M^−1·cm^−1) was attained to have a significant absorption maximum. […] The DPPH radicals are reduced by an antioxidant compound (AH), in which the reduction of electronic absorbance for each compound was vigilantly noted at 517 nm. The capacity to block radicals improves as the sample concentration increases. The assessed percentage of maximum inhibition for all substances was found at 240 μM in the subsequent order: (ascorbic acid) (85.65) > (1a) 68.64 > (2a) 59.55 > (HL) 52.45. […] Moreover, the % of scavenging or maximum inhibition for all substances is estimated with the aid of equation (44) (Table S14).(43) Scavanging%=A0−AS/A0×100
# [4] = Hydroxyl radical scavenging assay; assay type: biochemical; conditions: for % Inhibition hydroxyl radical: 230 nm
# Method: as §4
# Hydrogen peroxide receives electrons from antioxidant molecules and then neutralizes them into a water molecule. ^●OH inhibition capability was determined from the % of inhibition for all test substances at 230 nm.
# Shigella flexneri = assay: Agar disc diffusion, strain E; assay type: cell-based; set-up: (inhibition %): concentration or dose not given beside the values
# Method: as §1, §2, §3
# Staphylococcus aureus = assay: Agar disc diffusion, strain F; assay type: cell-based; set-up: (inhibition %): concentration or dose not given beside the values
# Method: as §1, §2, §3
# Escherichia coli = assay: Agar disc diffusion, strain A; assay type: cell-based; set-up: (inhibition %): concentration or dose not given beside the values
# Method: as §1, §2, §3
# [5] = test system: Salmonella enteric serovar typhi; assay: Agar disc diffusion, strain B; assay type: cell-based
# Method: as §1, §2, §3
# Pseudomonas aeruginosa = assay: Agar disc diffusion, strain D; assay type: cell-based; set-up: (inhibition %): concentration or dose not given beside the values
# Method: as §1, §2, §3
# Bacillus cereus = assay: Agar disc diffusion, strain G; assay type: cell-based; set-up: (inhibition %): concentration or dose not given beside the values
# Method: as §1, §2, §3
# [6] = test system: Salmonella enteric serovar typhi; assay: Agar disc diffusion, strain C; assay type: cell-based
# Method: as §1, §2, §3
# [7] = test system: calf thymus deoxyribonucleic acid; assay: DNA binding by viscometric (hydrodynamic) technique
# Method: The titrations were performed for all compounds including EB (control) at 20, 40, 60, 80, and 100 μM concentrations. In the Ostwald viscometer, these substances were also separately treated with the calf thymus deoxyribonucleic acid solution (100 μM).
# Hydrodynamic findings can be utilized to assess the alteration of DNA length and afford details on the binding tendency between small molecules and biomolecules. As a result of their sensitivity to DNA contour length changes, which implies that the average distance between each monomer (cl = 0.338 nm/bp for B-form DNA), the DNA binding properties of all test compounds were further validated by this method. According to the Lerman concept, interactions between small molecules and deoxyribonucleic acid via covalent and noncovalent bindings are often possible. When a chemical substance interacts with the deoxyribonucleic acid double helix, the contour length of DNA increases via intercalation and leads to an increase in the absolute viscosity. Meanwhile, if DNA viscosity is not affected during interactions, which leads to the responsible for the major/minor groove binding due to H-bond/Van der Waals interactions, electrostatic, partial, or nonclassical interaction modes. Therefore, analyzing the binding modes provides additional support for the findings as well as a crucial aspect of the conventional intercalation concept. In this case, it was observed that the absolute viscosity increased consistently along with the concentration of each substance at the fixed DNA concentration. The DNA must extend to facilitate the binding of ligands, which causes a considerable rise in DNA viscosity while small molecules intercalate into the DNA helix. According to equation (12), an increase in relative viscosity denotes an intercalation-induced lengthening of the deoxyribonucleic acid base pair. While adhering to the principle of excluding the nearest neighbors, intercalation entails inserting a planar molecule into a DNA base pair without rupturing the hydrogen bonds that hold the base pairs together. This causes a diminution in the DNA helical twist and an extension of the DNA. Moreover, a molecule can be presumed to bind to deoxyribonucleic acid by intercalation between base pairs if it causes lengthening and unwinding of the deoxyribonucleic acid base pairs. In this case, the relative viscosity of DNA gradually increases, while the […]. Moreover, the affinity interactions and their slope values were observed from the relative specific viscosity (η⁄η0)^1/3 plotted straight line contrasting [Compound]/[DNA], and absolute specific viscosity of deoxyribonucleic acid in the absence or presence of samples was evaluated using equation (12) (Table 3). […] The evaluated slope findings were in the subsequent sequence: (EB) 1.215 > (1a) 0.915 > (2a) 0.630 > (HL) 0.490 (Figure S21 and Table 3). […] Due to the existence of the 2,2′-bipyridine and morpholine-fused aromatic planar systems, compounds can interact with deoxyribonucleic acid robustly via intercalation. The outcomes were excellent in accordance with the observed outcomes of absorption spectral properties.(11) η/η0^1/3=tcomplex−t0/t0/tDNA−t0/t0, where η and η0 are represented as specific viscosity of DNA in the presence complex and specific viscosity of DNA alone, and t0, tDNA, and tcomplex are represented as the average flow time of the Tris-HCl buffer solution, the average flow time of DNA alone solution, and the average flow time of DNA interacted with the samples, respectively. Error limit is ±2.5% (P < 0.025).
structure (smiles),measurement,setting,value
"C[C@@H]1[C@H](O)[C@@H](C)/C=C/C=C/C=C/C=C/C=C/C=C/C=C/[C@H](O[C@@H]2O[C@H](C)[C@@H](O)[C@H](N)[C@@H]2O)C[C@@H]2O[C@](O)(C[C@@H](O)C[C@@H](O)[C@H](O)CC[C@@H](O)C[C@@H](O)CC(=O)O[C@H]1C)C[C@H](O)[C@H]2C(=O)O [Amphotericin B, reference compound]",(inhibition %),Mucor indicus,65%
same,diameter of the clear zone inhibition,Mucor indicus,17 mm
same,(inhibition %),Aspergillus niger,60%
same,diameter of the clear zone inhibition,Aspergillus niger,15 mm
same,(inhibition %),Candida albicans,65%
same,diameter of the clear zone inhibition,Candida albicans,17 mm
"O=C1O[C@H]([C@@H](O)CO)C(O)=C1O [Ascorbic acid, reference compound]",IC50,[1],160 µM
same,% Inhibition nitric oxide,[1]; 40 µM,28.55%
same,% Inhibition nitric oxide,[1]; 80 µM,35.75%
same,% Inhibition nitric oxide,[1]; 120 µM,43.65%
same,% Inhibition nitric oxide,[1]; 160 µM,52.68%
same,% Inhibition nitric oxide,[1]; 200 µM,63.72%
same,% Inhibition nitric oxide,[1]; 240 µM,72.73%
same,IC50,[2],120 µM
same,% Inhibition superoxide,[2]; 40 µM,29.64%
same,% Inhibition superoxide,[2]; 80 µM,41.72%
same,% Inhibition superoxide,[2]; 120 µM,55.63%
same,% Inhibition superoxide,[2]; 160 µM,66.75%
same,% Inhibition superoxide,[2]; 200 µM,72.55%
same,% Inhibition superoxide,[2]; 240 µM,84.85%
same,IC50,[3],80 µM
same,% Inhibition DPPH,[3]; 40 µM,41.63%
same,% Inhibition DPPH,[3]; 80 µM,53.74%
same,% Inhibition DPPH,[3]; 120 µM,58.95%
same,% Inhibition DPPH,[3]; 160 µM,70.86%
same,% Inhibition DPPH,[3]; 200 µM,82.75%
same,% Inhibition DPPH,[3]; 240 µM,85.65%
same,IC50,[4],160 µM
same,% Inhibition hydroxyl radical,[4]; 40 µM,20.73%
same,% Inhibition hydroxyl radical,[4]; 80 µM,36.46%
same,% Inhibition hydroxyl radical,[4]; 120 µM,47.87%
same,% Inhibition hydroxyl radical,[4]; 160 µM,59.65%
same,% Inhibition hydroxyl radical,[4]; 200 µM,65.64%
same,% Inhibition hydroxyl radical,[4]; 240 µM,78.83%
"[H]/N=C(/N)N[C@H]1[C@H](O)[C@@H](O)[C@H](O[C@@H]2O[C@@H](C)[C@](O)(C=O)[C@H]2O[C@@H]2O[C@@H](CO)[C@H](O)[C@@H](O)[C@@H]2NC)[C@@H](N/C(N)=N\[H])[C@@H]1O [Streptomycin, reference compound]",(inhibition %),Shigella flexneri,76%
same,diameter of the clear zone inhibition,Shigella flexneri; control = 6 mm,25 mm
same,(inhibition %),Staphylococcus aureus,71%
same,diameter of the clear zone inhibition,Staphylococcus aureus; control = 6 mm,21 mm
same,(inhibition %),Escherichia coli; (T–C)/T×100,75%
same,diameter of the clear zone inhibition,Escherichia coli; control (DMSO) = 6 mm,24 mm
same,(inhibition %),[5],77%
same,diameter of the clear zone inhibition,[5]; control = 6 mm,26 mm
same,(inhibition %),Pseudomonas aeruginosa,71%
same,diameter of the clear zone inhibition,Pseudomonas aeruginosa; control = 6 mm,21 mm
same,(inhibition %),Bacillus cereus,71%
same,diameter of the clear zone inhibition,Bacillus cereus; control = 6 mm,21 mm
same,(inhibition %),[6],75%
same,diameter of the clear zone inhibition,[6]; control = 6 mm,24 mm
"CC[n+]1c(-c2ccccc2)c2cc(N)ccc2c2ccc(N)cc21 [EB (control), Ethidium bromide, reference compound]",Slope of (η/η0)^1/3 vs [Compound]/[DNA],[7],1.215
same,Relative specific viscosity (η/η0)^1/3,[7]; [complex]/[DNA] = 0.2,1.01
same,Relative specific viscosity (η/η0)^1/3,[7]; [complex]/[DNA] = 0.4,1.35
same,Relative specific viscosity (η/η0)^1/3,[7]; [complex]/[DNA] = 0.6,1.63
same,Relative specific viscosity (η/η0)^1/3,[7]; [complex]/[DNA] = 0.8,1.82
same,Relative specific viscosity (η/η0)^1/3,[7]; [complex]/[DNA] = 1.0,1.99
"CC(=O)N1CCN(c2ccc(OCC3COC(Cn4ccnc4)(c4ccc(Cl)cc4Cl)O3)cc2)CC1 (stereo not drawn) [Ketoconazole, reference compound]",(inhibition %),Mucor indicus,67%
same,diameter of the clear zone inhibition,Mucor indicus,18 mm
same,(inhibition %),Aspergillus niger,63%
same,diameter of the clear zone inhibition,Aspergillus niger,16 mm
same,(inhibition %),Candida albicans,67%
same,diameter of the clear zone inhibition,Candida albicans,18 mm
